# Earlier results in patent US20090062391A1, “Use of a virucidal ointment in the nares for prevention of transmission and contraction of common colds” (priority 2007, published 2009).
# Key:
# [1] = tested on: viruses which cause colds; details: for effectiveness against viruses which cause colds: organic acid; for effectiveness at inactivating cold viruses: surfactant combined with organic acids
# herpes simplex virus = details: Poli et al. [5]
# rhabdovirus = details: Poli et al. [5]
# adenovirus = details: Poli et al. [5]; only naked virus tested
# rhinovirus [2] = details: Hendley et al. [4]
# rhinovirus [3] = details: hand lotions containing 2% glutaric acid, versus placebo; Hayden et al. [6]
# [4] = frequent application
# common colds = details: in vivo
compound,measurement,setting,value
N[C@@H](CC(=O)O)C(=O)O [aspartic acid],effectiveness against viruses which cause colds,[1],effective
O=C(O)CC(O)(CC(=O)O)C(=O)O [citric acid],antiviral activity against herpes simplex virus,herpes simplex virus,effective
same,antiviral activity against rhabdovirus,rhabdovirus,effective
same,antiviral activity against adenovirus,adenovirus,not effective
same,effectiveness against viruses which cause colds,[1],effective
CCO [ethyl alcohol],antiviral activity,rhinovirus [2],performed poorly
O=C(O)CCCC(=O)O [glutaric acid],inactivating certain serotypes of rhinovirus,rhinovirus [3],more effective than placebo
O=C(O)CO [glycolic acid],effectiveness against viruses which cause colds,[1],effective
II [iodine],irritation of the skin,[4],too irritating to the skin
CC(O)C(=O)O (centres unmarked) [lactic acid],effectiveness against viruses which cause colds,[1],effective
O=C(O)CC(O)C(=O)O (centres unmarked) [malic acid],antiviral activity against herpes simplex virus,herpes simplex virus,effective
same,antiviral activity against rhabdovirus,rhabdovirus,effective
same,antiviral activity against adenovirus,adenovirus,not effective
same,effectiveness against viruses which cause colds,[1],effective
CCCCCCCCC(=O)O [pelargonic acid],effectiveness against viruses which cause colds,[1],effective
CC(=O)C(=O)O [pyruvic acid],antiviral activity against herpes simplex virus,herpes simplex virus,effective
same,antiviral activity against rhabdovirus,rhabdovirus,effective
same,antiviral activity against adenovirus,adenovirus,not effective
CCCCCCCCOC(=O)CC(C(=O)OCCCCCCCC)S(=O)(=O)O.[Na] (centres unmarked) [sodium dioctyl sulfosuccinate],effectiveness at inactivating cold viruses,[1],demonstrated effectiveness
CCCCCCCCCCCCOS(=O)(=O)[O-].[Na+] [sodium dodecyl sulfate],effectiveness at inactivating cold viruses,[1],demonstrated effectiveness
O=C(O)CCC(=O)O [succinic acid],antiviral activity against herpes simplex virus,herpes simplex virus,effective
same,antiviral activity against rhabdovirus,rhabdovirus,effective
same,antiviral activity against adenovirus,adenovirus,not effective
CCCCC(=O)O [valeric acid],effectiveness against viruses which cause colds,[1],effective
[Zn] [zinc],duration of common colds,common colds,shorten the duration
benzalkonium chloride,antiviral activity,rhinovirus [2],performed poorly
